Data taken from PubChem BioAssay AID2060503 (Molecular Pharmacology Branch, DTP, NCI, 2025).
pIC50: −log10 of the molar value.

Tested on: 817829-284-R-J1-PDC complex spheroids, viability
Experiment: Anticancer human tumor 817829-284-R-J1-PDC patient-derived colon adenocarcinoma cell line growth inhibition [GQUAD]
Settings: for pIC50: curve of first compound; for viability, T/C: stronger effect = lower value
Outline: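 Tumor cells were grown as complex spheroids with HUVEC endothelial cells and mesenchymal stem cells as stroma. G-quadruplex stabilizers were combined with targeted agents over half-log dilutions from near the clinical Cmax, or from 10 microM.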

[1] = second compound 0.0316 µM, first compound 0.0316 µM
[2] = second compound 0.0316 µM, first compound 0.1 µM
[3] = second compound 0.0316 µM, first compound 0.316 µM
[4] = second compound 0.0316 µM, first compound 1 µM
[5] = second compound 0.0316 µM, first compound 3.16 µM
[6] = second compound 0.0316 µM, first compound 10 µM
[7] = second compound 0.1 µM, first compound 0.0316 µM
[8] = second compound 0.1 µM, first compound 0.1 µM
[9] = second compound 0.1 µM, first compound 0.316 µM
[10] = second compound 0.1 µM, first compound 1 µM
[11] = second compound 0.1 µM, first compound 3.16 µM
[12] = second compound 0.1 µM, first compound 10 µM
[13] = second compound 0.316 µM, first compound 0.0316 µM
[14] = second compound 0.316 µM, first compound 0.1 µM
[15] = second compound 0.316 µM, first compound 0.316 µM
[16] = second compound 0.316 µM, first compound 1 µM
[17] = second compound 0.316 µM, first compound 3.16 µM
[18] = second compound 0.316 µM, first compound 10 µM
[19] = second compound 1 µM, first compound 0.0316 µM
[20] = second compound 1 µM, first compound 0.1 µM
[21] = second compound 1 µM, first compound 0.316 µM
[22] = second compound 1 µM, first compound 1 µM
[23] = second compound 1 µM, first compound 3.16 µM
[24] = second compound 1 µM, first compound 10 µM
[25] = second compound 3.16 µM, first compound 0.0316 µM
[26] = second compound 3.16 µM, first compound 0.1 µM
[27] = second compound 3.16 µM, first compound 0.316 µM
[28] = second compound 3.16 µM, first compound 1 µM
[29] = second compound 3.16 µM, first compound 3.16 µM
[30] = second compound 3.16 µM, first compound 10 µM
[31] = second compound 10 µM, first compound 0.0316 µM
[32] = second compound 10 µM, first compound 0.1 µM
[33] = second compound 10 µM, first compound 0.316 µM
[34] = second compound 10 µM, first compound 1 µM
[35] = second compound 10 µM, first compound 3.16 µM
[36] = second compound 10 µM, first compound 10 µM
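Note: spheroids exposed to agents for 7 days before readout.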
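Throughout, for viability, T/C: percent viability relative to DMSO vehicle control taken as 100%.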

For `COc1ccc([C@@H](O)c2cc(-c3ncnc4cc(N5CCOCC5)ccc34)c(F)cc2Cl)nn1` + Cc1cnc(CNC(=O)c2c(=O)c3ccc(N4CCCN(C)CC4)nc3n3c2sc2ccccc23)cn1, the pIC50 (second compound 0.0316 µM) was 6.62, the pIC50 (second compound 0.1 µM) was > 7.50 and the pIC50 (second compound 0.316 µM) was > 7.50. For the same compound, the pIC50 (second compound 1 µM) was > 7.50, the pIC50 (second compound 3.16 µM) was > 7.50 and the pIC50 (second compound 10 µM) was > 7.50. It also gave a viability, T/C [1] of 81.7%, a viability, T/C [2] of 75.5% and a viability, T/C [3] of 41%. For the same compound, the viability, T/C [4] was 31.2%, the viability, T/C [5] was 27.9% and the viability, T/C [6] was 20.9%. The viability, T/C [7] was 42%, the viability, T/C [8] was 37.5% and the viability, T/C [9] was 31.9%. The viability, T/C [10] was 24.2%, the viability, T/C [11] was 24.2% and the viability, T/C [12] was 19.3%. The viability, T/C [13] was 27.7%, the viability, T/C [14] was 29.7% and the viability, T/C [15] was 24%. It also gave a viability, T/C [16] of 22%, a viability, T/C [17] of 22.8% and a viability, T/C [18] of 18%. It also gave a viability, T/C [19] of 25.1%, a viability, T/C [20] of 25.6% and a viability, T/C [21] of 25.1%. For the same compound, the viability, T/C [22] was 17.7%, the viability, T/C [23] was 18.2% and the viability, T/C [24] was 12.7%. It also gave a viability, T/C [25] of 21.2%, a viability, T/C [26] of 22.7% and a viability, T/C [27] of 21.6%. For the same compound, the viability, T/C [28] was 17%, the viability, T/C [29] was 15% and the viability, T/C [30] was 8.95%. The viability, T/C [31] was 0.12%, the viability, T/C [32] was 0.16% and the viability, T/C [33] was 0.18%. For the same compound, the viability, T/C [34] was 0.23%, the viability, T/C [35] was 0.2% and the viability, T/C [36] was 0.19%.

`Cn1ncnc1[C@H]1c2n[nH]c(=O)c3cc(F)cc(c23)N[C@@H]1c1ccc(F)cc1` + Cc1cnc(CNC(=O)c2c(=O)c3ccc(N4CCCN(C)CC4)nc3n3c2sc2ccccc23)cn1 was tested, and the pIC50 (second compound 0.0316 µM) was 7.56, the pIC50 (second compound 0.1 µM) was > 9.00 and the pIC50 (second compound 0.316 µM) was > 9.00. For the same compound, the pIC50 (second compound 1 µM) was > 9.00, the pIC50 (second compound 3.16 µM) was > 9.00 and the pIC50 (second compound 10 µM) was > 9.00. For the same compound, the viability, T/C (second compound 0.0316 µM, first compound 0.000999 µM) was 84.5%, the viability, T/C (second compound 0.0316 µM, first compound 0.00316 µM) was 70.5% and the viability, T/C (second compound 0.0316 µM, first compound 0.00999 µM) was 58.1%. It also gave a viability, T/C [1] of 48.8%, a viability, T/C (second compound 0.0316 µM, first compound 0.0999 µM) of 43.6% and a viability, T/C [3] of 42.4%. The viability, T/C (second compound 0.1 µM, first compound 0.000999 µM) was 38.6%, the viability, T/C (second compound 0.1 µM, first compound 0.00316 µM) was 35.7% and the viability, T/C (second compound 0.1 µM, first compound 0.00999 µM) was 29.8%. The viability, T/C [7] was 34.2%, the viability, T/C (second compound 0.1 µM, first compound 0.0999 µM) was 31.7% and the viability, T/C [9] was 29.6%. For the same compound, the viability, T/C (second compound 0.316 µM, first compound 0.000999 µM) was 26.3%, the viability, T/C (second compound 0.316 µM, first compound 0.00316 µM) was 25.3% and the viability, T/C (second compound 0.316 µM, first compound 0.00999 µM) was 27.7%. It also gave a viability, T/C [13] of 26.7%, a viability, T/C (second compound 0.316 µM, first compound 0.0999 µM) of 26.4% and a viability, T/C [15] of 25.3%. It also gave a viability, T/C (second compound 1 µM, first compound 0.000999 µM) of 21.2%, a viability, T/C (second compound 1 µM, first compound 0.00316 µM) of 22.5% and a viability, T/C (second compound 1 µM, first compound 0.00999 µM) of 23.2%. It also gave a viability, T/C [19] of 22.9%, a viability, T/C (second compound 1 µM, first compound 0.0999 µM) of 23.3% and a viability, T/C [21] of 22%. It also gave a viability, T/C (second compound 3.16 µM, first compound 0.000999 µM) of 20.3%, a viability, T/C (second compound 3.16 µM, first compound 0.00316 µM) of 21% and a viability, T/C (second compound 3.16 µM, first compound 0.00999 µM) of 19.8%. It also gave a viability, T/C [25] of 19.4%, a viability, T/C (second compound 3.16 µM, first compound 0.0999 µM) of 20.4% and a viability, T/C [27] of 16.3%. It also gave a viability, T/C (second compound 10 µM, first compound 0.000999 µM) of 0.16%, a viability, T/C (second compound 10 µM, first compound 0.00316 µM) of 0.2% and a viability, T/C (second compound 10 µM, first compound 0.00999 µM) of 0.19%. The viability, T/C [31] was 0.17%, the viability, T/C (second compound 10 µM, first compound 0.0999 µM) was 0.19% and the viability, T/C [33] was 0.2%.

`O=C(c1cc(Cc2n[nH]c(=O)c3ccccc23)ccc1F)N1CCN(C(=O)C2CC2)CC1` + Cc1cnc(CNC(=O)c2c(=O)c3ccc(N4CCCN(C)CC4)nc3n3c2sc2ccccc23)cn1 was tested, and the pIC50 (second compound 0.0316 µM) was 5.97, the pIC50 (second compound 0.1 µM) was > 7.50 and the pIC50 (second compound 0.316 µM) was > 7.50. For the same compound, the pIC50 (second compound 1 µM) was > 7.50, the pIC50 (second compound 3.16 µM) was > 7.50 and the pIC50 (second compound 10 µM) was > 7.50. For the same compound, the viability, T/C [1] was 78.9%, the viability, T/C [2] was 65.2% and the viability, T/C [3] was 58.5%. The viability, T/C [4] was 51.6%, the viability, T/C [5] was 44.2% and the viability, T/C [6] was 35.6%. It also gave a viability, T/C [7] of 30.9%, a viability, T/C [8] of 33.5% and a viability, T/C [9] of 32.9%. It also gave a viability, T/C [10] of 32.1%, a viability, T/C [11] of 33.8% and a viability, T/C [12] of 29.9%. It also gave a viability, T/C [13] of 24.3%, a viability, T/C [14] of 24.5% and a viability, T/C [15] of 25.1%. For the same compound, the viability, T/C [16] was 23.7%, the viability, T/C [17] was 26.4% and the viability, T/C [18] was 27.4%. For the same compound, the viability, T/C [19] was 18.6%, the viability, T/C [20] was 23.9% and the viability, T/C [21] was 20.3%. The viability, T/C [22] was 22.8%, the viability, T/C [23] was 23.1% and the viability, T/C [24] was 23.4%. The viability, T/C [25] was 18.1%, the viability, T/C [26] was 21% and the viability, T/C [27] was 21.3%. It also gave a viability, T/C [28] of 19%, a viability, T/C [29] of 20% and a viability, T/C [30] of 21.4%. It also gave a viability, T/C [31] of 0.17%, a viability, T/C [32] of 0.18% and a viability, T/C [33] of 0.22%. It also gave a viability, T/C [34] of 0.2%, a viability, T/C [35] of 0.22% and a viability, T/C [36] of 0.21%.
